# Results as given in patent US20250019361A1, “(3-QUINOLYL)-QUINAZOLINE” (BASF SE, priority 2021, published 2025).
# Tested on: Septoria tritici
# Assay: Microtest: activity against leaf blotch on wheat caused by Septoria tritici
# Type: cell-based
# Conditions: 8 ppm
# Method: The active compounds were formulated separately as a stock solution having a concentration of 10000 ppm in dimethyl sulfoxide.
# The stock solutions were mixed according to the ratio, pipetted onto a micro titer plate (MTP) and diluted with water to the stated concentrations.
# A spore suspension of Septoria tritici in an aqueous biomalt or yeast-bactopeptone-glycerine or DOB solution was then added.
# The measured parameters were compared to the growth of the active compound-free control variant (100%) and the fungus-free blank value to determine the relative growth in % of the pathogens in the respective active compounds.
row,Structure (SMILES),"growth of the pathogen (relative growth in %, control 100%) [%]"
1,CC1(C)N=C(c2cnc3c(F)cccc3c2)c2ccccc2N1C#N [Ex-8],19
2,CCN1c2c(F)cccc2C(c2cnc3c(F)cccc3c2)=NC1(C)C [Ex-10],19
3,CCCCN1c2c(F)cccc2C(c2cnc3c(F)cccc3c2)=NC1(C)C [Ex-9],19
4,N#CN1c2ccccc2C(c2cnc3c(F)cccc3c2)=NC12CCCC2 [Ex-7],19
5,CCCN1c2c(F)cccc2C(c2cnc3c(F)cccc3c2)=NC1(C)C [Ex-11],19
